From patent US20250222044A1, “LIMOSILACTOBACILLUS REUTERI GOLDGUT-LR99 AND APPLICATION THEREOF” (priority 2024, published 2025)
Where a SMILES comes first, the peptide text is derived from it.

System: Limosilactobacillus reuteri GOLDGUT-LR99
Assay: Carbon source utilization and oxidation experiment (AN Biolog micro-pore plate)
Format: cell-based
Conditions: substrate utilization by the strain; for Utilization (Y=OD590−OD750): 37° C. anaerobic culture for 24 hours
Procedure: The AN Biolog micro-pore plate was used for measuring the utilization and oxidation conditions of different carbon sources of Limosilactobacillus reuteri GOLDGUT-LR99, the AN microplate used nutrients and biochemical reagents, and the method included the following steps: 1 mL of Limosilactobacillus reuteri GOLDGUT-LR99 bacterial liquid of the strain to be detected at the end of logarithmic growth was pipetted and centrifuged, then the supernatant was removed, the cells was washed three times with the seed liquid and suspended with 1 mL of the seed liquid, 50 μL of the suspension was taken and diluted in 10 mL of the seed liquid, the diluent was subpacked in a Biolog plate (100 μL/pore) after mixing uniformly, and the Biolog plate with the diluent was placed in 37° C. for anaerobic culture for 24 hours. After the culture was finished, OD590 and OD750 were detected by using microplate reader, the numerical values were recorded, and the utilization conditions of carbohydrate, organic acid and other substances of the Limosilactobacillus reuteri GOLDGUT-LR99 were calculated, wherein the calculation method was as follows: Y=OD590−OD750;

| Molecule | Utilization (Y=OD590−OD750) | utilization effect (in words) |
| --- | --- | --- |
| OC[C@H]1O[C@H](O[C@H]2O[C@H](CO)[C@@H](O)[C@H](O)[C@H]2O)[C@H](O)[C@@H](O)[C@@H]1O [D-Trehalose] | − (when Y < 0.05, it is shown that the strain was not able to utilize this substance, marked as −) | – |
| O[C@H]1[C@H](O)[C@@H](O)[C@H](O)[C@@H](O)[C@H]1O [m-Inositol] | + (when 0.1 > Y > 0.05, it is shown that the strain was able to better utilize this substance, marked as +) | – |
| C[C@H](O)C(=O)O [L-Lactic acid] | ++ (when Y > 0.1, it is shown that the strain was able to effectively utilize this substance, marked as++) | – |
| O=c1ccn([C@@H]2O[C@H](CO)[C@@H](O)[C@H]2O)c(=O)[nH]1 [Uridine] | − (when Y < 0.05, it is shown that the strain was not able to utilize this substance, marked as −) | – |
| OC[C@H]1O[C@@H](O[C@@H]2[C@@H](CO)OC(O)(CO)[C@H]2O)[C@H](O)[C@@H](O)[C@H]1O (mixture of isomers) [Lactulose] | − (when Y < 0.05, it is shown that the strain was not able to utilize this substance, marked as −) | – |
| Nc1ncnc2c1ncn2[C@H]1C[C@H](O)[C@@H](CO)O1 [2′-Deoxyadenosine] | − (when Y < 0.05, it is shown that the strain was not able to utilize this substance, marked as −) | – |
| N[C@@H](CO)C(=O)O [L-Serine] | − (when Y < 0.05, it is shown that the strain was not able to utilize this substance, marked as −) | – |
| N[C@@H](Cc1ccccc1)C(=O)O [L-Phenylalanine] | − (when Y < 0.05, it is shown that the strain was not able to utilize this substance, marked as −) | – |
| O=C(O)C[C@@H](O)C(=O)O [D-Malic acid] | − (when Y < 0.05, it is shown that the strain was not able to utilize this substance, marked as −) | – |
| CO[C@@H]1O[C@H](CO)[C@@H](O)[C@H](O)[C@H]1O [β-Methyl-D-galactoside] | − (when Y < 0.05, it is shown that the strain was not able to utilize this substance, marked as −) | – |
| Hexanediol | − (when Y < 0.05, it is shown that the strain was not able to utilize this substance, marked as −) | – |
| NC(=O)CCC(=O)O [Succinamide acid] | + (when 0.1 > Y > 0.05, it is shown that the strain was able to better utilize this substance, marked as +) | – |
| OC[C@H]1O[C@H](OC[C@H]2OC(O)(CO)[C@@H](O)[C@@H]2O)[C@H](O)[C@@H](O)[C@@H]1O (stereo partly shown) [Palatinose] | ++ (when Y > 0.1, it is shown that the strain was able to effectively utilize this substance, marked as++) | – |
| OC[C@@H](O)C(O)[C@H](O)CO [D-Arabinitol] | − (when Y < 0.05, it is shown that the strain was not able to utilize this substance, marked as −) | – |
| L-Uracilic acid | − (when Y < 0.05, it is shown that the strain was not able to utilize this substance, marked as −) | – |
| OC[C@@H](O)[C@@H](O)CO [i-Erythritol] | − (when Y < 0.05, it is shown that the strain was not able to utilize this substance, marked as −) | – |
| NCC(=O)N[C@@H](CCC(N)=O)C(=O)O [Glycyl-L-glutamine] (H-Gly-Gln-OH) | − (when Y < 0.05, it is shown that the strain was not able to utilize this substance, marked as −) | – |
| N#C[C@H](O[C@@H]1O[C@H](CO[C@@H]2O[C@H](CO)[C@@H](O)[C@H](O)[C@H]2O)[C@@H](O)[C@H](O)[C@H]1O)c1ccccc1 [Amygdalin] | − (when Y < 0.05, it is shown that the strain was not able to utilize this substance, marked as −) | – |
| O=C(O)C[C@H](O)C(=O)O [L-Malic acid] | − (when Y < 0.05, it is shown that the strain was not able to utilize this substance, marked as −) | – |

| Molecule | Utilization (Y=OD590−OD750) | utilization effect (in words) |
| --- | --- | --- |
| L-Alanyl-L-M-threonine | − (when Y < 0.05, it is shown that the strain was not able to utilize this substance, marked as −) | – |
| CSCC[C@H](N)C(=O)O [L-Methionine] | − (when Y < 0.05, it is shown that the strain was not able to utilize this substance, marked as −) | – |
| CC(C)[C@H](N)C(=O)O [L-Valine] | + (when 0.1 > Y > 0.05, it is shown that the strain was able to better utilize this substance, marked as +) | good utilization effect |
| C[C@H](N)C(=O)O [L-Alanine] | − (when Y < 0.05, it is shown that the strain was not able to utilize this substance, marked as −) | – |
| O=C(CO)[C@@H](O)[C@H](O)[C@H](O)CO [D-Fructose] | ++ (when Y > 0.1, it is shown that the strain was able to effectively utilize this substance, marked as++) | better utilization effect |
| COC(=O)CCC(=O)O [Succinic acid methyl ester] | − (when Y < 0.05, it is shown that the strain was not able to utilize this substance, marked as −) | – |
| OCC(O)CO [Glycerol] | − (when Y < 0.05, it is shown that the strain was not able to utilize this substance, marked as −) | – |
| COC(=O)C(C)O (stereo not shown) [Methyl lactate] | + (when 0.1 > Y > 0.05, it is shown that the strain was able to better utilize this substance, marked as +) | – |
| CCC(O)C(=O)O (stereo not drawn) [α-Hydroxybutyric acid] | − (when Y < 0.05, it is shown that the strain was not able to utilize this substance, marked as −) | – |
| O=C[C@H](O)[C@@H](O)[C@@H](O)[C@H](O)C(=O)O [D-Galacturonic acid] | ++ (when Y > 0.1, it is shown that the strain was able to effectively utilize this substance, marked as++) | – |
| 3-Methyl-D-4-glucose | ++ (when Y > 0.1, it is shown that the strain was able to effectively utilize this substance, marked as++) | – |
| OC[C@@H](O)[C@@H](O)[C@@H](O)CO [Ribitol] | − (when Y < 0.05, it is shown that the strain was not able to utilize this substance, marked as −) | – |
| O=C(O)[C@H]1OC(O)[C@H](O)[C@@H](O)[C@@H]1O (stereo partly drawn) [D-Glucoronate] | ++ (when Y > 0.1, it is shown that the strain was able to effectively utilize this substance, marked as++) | – |
| CO[C@H]1O[C@H](CO)[C@@H](O)[C@H](O)[C@H]1O [α-Methyl-D-glucoside] | − (when Y < 0.05, it is shown that the strain was not able to utilize this substance, marked as −) | – |
| O=c1ccn([C@@H]2O[C@H](COP(=O)(O)O)[C@@H](O)[C@H]2O)c(=O)[nH]1 [Uridine-5′-monophosphate] | − (when Y < 0.05, it is shown that the strain was not able to utilize this substance, marked as −) | – |
| COC(C)=O [Methyl acetate] | ++ (when Y > 0.1, it is shown that the strain was able to effectively utilize this substance, marked as++) | – |
| Cc1cn([C@H]2C[C@H](O)[C@@H](CO)O2)c(=O)[nH]c1=O [Thymidine] | − (when Y < 0.05, it is shown that the strain was not able to utilize this substance, marked as −) | – |
| O=C(CO)[C@@H](O[C@H]1O[C@H](CO)[C@@H](O)[C@H](O)[C@H]1O)[C@H](O)[C@H](O)CO [turanose] | – | better utilization effect |
| O=C(O)/C=C/C(=O)O [Fumaric acid] | − (when Y < 0.05, it is shown that the strain was not able to utilize this substance, marked as −) | – |
